Test results from ChEMBL document CHEMBL1152679, “The lifespan-promoting effect of acetic acid and Reishi polysaccharide” (2009).
The source made the active and inactive calls. The calls are words filed in the database; no cut-off is given here.

System: Caenorhabditis elegans
Assay: Longevity-promoting activity in wild type Caenorhabditis elegans N2 assessed as increase in lifespan at 50 ppm by microscopic analysis
Format: functional, organism-based

Structure (SMILES)	Activity
CC(=O)O	Active
O=C(O)c1ccccc1	inactive
O=C(O)CC(O)(CC(=O)O)C(=O)O	inactive
